Measured values from patent publication US20250313535A1, “ALPHA 4 BETA 7 INTEGRIN MODULATORS AND USES THEREOF” (DICE MOLECULES SV, INC., priority 2022, published 2025).

Tests used:
[1] = molecular target: α4β7 integrin (Homo sapiens (Human), UniProt P13612+P26010); experiment: Integrin Adhesion Assay: Protocol 1 (MAdCAM-coated plate, RPMI-8866 cells, CellTiter GLO readout); type: cell-based
Experimental: α4β7 and α4β1 inhibition was evaluated in vitro using at least one of the following procedures:
Integrin Adhesion Assay: Protocol 1
MAdCAM (R&D Systems, 0.1 ug) was diluted in 50 μL PBS, added to each well of an opaque ELISA plate (Thermo), and incubated overnight at 4° C. Coated plates were washed once with PBS and then blocked with 200 μL of assay buffer (10 mM HEPES, 150 mM NaCl, 1 mM MnCl2, 0.1 mM CaCl2), 1% BSA) for 1 hour at 37° C. and 5% CO2. After incubation, buffer was aspirated from the plates and 50 μL of fresh assay buffer is added. Compounds were added by a compouns dispenser (Tecan) and DMSO concentration was normalized to 1% across each plate. 50 μL of RPMI-8866 cells (2×10^6 per mL) were added to each well and the plates were incubated for 1 hour at 37° C. and 5% CO2. After incubation, plates were allowed to cool to RT for 10 minutes before being washed four times in assay buffer by an automated plate washer (BioTek). After washing, 100 μL of a 1:1 mixture of assay buffer and CellTiter GLO 2.0 reagent (Promega) were added to each well. Plates were mixed for 2 minutes at 1000 rpm and then allowed to incubate an additional 10 minutes before reading out luminescence on a Tecan Spark plate reader. Raw data was converted to percent inhibition based on DMSO only and control compound wells, and curves were analyzed by 4-parameter fit within Dotmatics software.

[2] = molecular target: α4β1 integrin (Homo sapiens (Human), UniProt P05556+P13612); experiment: Integrin Adhesion Assay: Protocol 5 (VCAM-coated plate, RPMI-8866 cells with stable LOF mutation of the ITGB7 gene); type: cell-based; details: RPMI-8866 cells with stable LOF mutation of the ITGB7 gene; read-out: Mean IC50 α4β1 KO^b
Chain of α4β1 integrin (P13612 34-1032): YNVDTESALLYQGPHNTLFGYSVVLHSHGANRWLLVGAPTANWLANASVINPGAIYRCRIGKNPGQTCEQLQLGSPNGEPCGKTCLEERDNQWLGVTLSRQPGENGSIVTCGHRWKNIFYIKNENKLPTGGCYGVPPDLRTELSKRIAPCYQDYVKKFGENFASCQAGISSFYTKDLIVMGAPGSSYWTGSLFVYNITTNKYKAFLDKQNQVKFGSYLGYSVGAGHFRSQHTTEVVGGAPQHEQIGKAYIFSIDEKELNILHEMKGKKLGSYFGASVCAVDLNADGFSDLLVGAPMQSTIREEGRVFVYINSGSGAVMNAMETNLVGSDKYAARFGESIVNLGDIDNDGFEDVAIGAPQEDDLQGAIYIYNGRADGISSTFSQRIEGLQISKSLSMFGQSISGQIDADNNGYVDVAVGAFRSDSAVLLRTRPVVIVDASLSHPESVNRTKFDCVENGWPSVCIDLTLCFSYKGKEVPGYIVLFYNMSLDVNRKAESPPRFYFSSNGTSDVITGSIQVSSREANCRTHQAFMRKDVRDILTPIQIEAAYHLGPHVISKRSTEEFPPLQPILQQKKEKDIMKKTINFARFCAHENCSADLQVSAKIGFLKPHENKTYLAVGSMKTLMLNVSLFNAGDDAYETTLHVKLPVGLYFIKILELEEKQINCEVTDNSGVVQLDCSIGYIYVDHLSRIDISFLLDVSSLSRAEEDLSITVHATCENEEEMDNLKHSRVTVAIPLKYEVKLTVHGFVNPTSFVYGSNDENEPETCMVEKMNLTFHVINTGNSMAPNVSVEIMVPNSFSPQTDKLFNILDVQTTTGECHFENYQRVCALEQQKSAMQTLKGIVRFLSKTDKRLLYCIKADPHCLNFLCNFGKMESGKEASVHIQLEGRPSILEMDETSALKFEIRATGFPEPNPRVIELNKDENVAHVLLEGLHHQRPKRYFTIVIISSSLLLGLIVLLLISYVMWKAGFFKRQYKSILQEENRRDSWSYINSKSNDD
Chain of α4β1 integrin (P05556 21-798): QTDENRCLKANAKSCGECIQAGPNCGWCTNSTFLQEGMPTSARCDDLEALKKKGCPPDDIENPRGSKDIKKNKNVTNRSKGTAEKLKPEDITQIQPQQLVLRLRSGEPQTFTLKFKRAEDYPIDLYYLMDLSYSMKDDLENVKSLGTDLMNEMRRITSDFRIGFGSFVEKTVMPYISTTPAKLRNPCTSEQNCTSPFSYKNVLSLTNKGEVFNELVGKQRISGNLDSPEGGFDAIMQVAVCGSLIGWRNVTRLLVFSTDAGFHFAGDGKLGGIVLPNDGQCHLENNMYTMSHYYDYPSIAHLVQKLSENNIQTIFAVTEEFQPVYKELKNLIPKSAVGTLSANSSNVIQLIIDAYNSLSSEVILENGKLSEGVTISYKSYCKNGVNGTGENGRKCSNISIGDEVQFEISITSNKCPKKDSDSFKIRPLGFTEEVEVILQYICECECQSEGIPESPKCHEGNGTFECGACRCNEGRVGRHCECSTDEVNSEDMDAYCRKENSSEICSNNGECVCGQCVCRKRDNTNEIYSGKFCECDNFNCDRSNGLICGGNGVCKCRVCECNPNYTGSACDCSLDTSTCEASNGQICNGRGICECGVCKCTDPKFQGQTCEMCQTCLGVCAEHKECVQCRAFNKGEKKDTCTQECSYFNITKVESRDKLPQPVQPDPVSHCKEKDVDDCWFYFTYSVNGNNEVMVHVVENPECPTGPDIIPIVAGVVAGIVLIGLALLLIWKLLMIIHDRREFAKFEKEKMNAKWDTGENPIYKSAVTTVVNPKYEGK
How it was run: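 RPMI-8866 B cells with CRISPR/Cas9 ITGB7 knockout (clonal, verified by flow cytometry) adhered to VCAM-coated wells for 1 h at 37° C in HEPES/NaCl buffer with 1 mM MnCl2, 0.1 mM CaCl2, 1% BSA, 1% DMSO. Bound cells quantified by CellTiter-Glo luminescence after washing; % inhibition versus DMSO and control, 4-parameter fit.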

Chain of α4β7 integrin (P13612 34-1032): as the sequence (P13612 34-1032) above
Chain of α4β7 integrin (P26010 20-798): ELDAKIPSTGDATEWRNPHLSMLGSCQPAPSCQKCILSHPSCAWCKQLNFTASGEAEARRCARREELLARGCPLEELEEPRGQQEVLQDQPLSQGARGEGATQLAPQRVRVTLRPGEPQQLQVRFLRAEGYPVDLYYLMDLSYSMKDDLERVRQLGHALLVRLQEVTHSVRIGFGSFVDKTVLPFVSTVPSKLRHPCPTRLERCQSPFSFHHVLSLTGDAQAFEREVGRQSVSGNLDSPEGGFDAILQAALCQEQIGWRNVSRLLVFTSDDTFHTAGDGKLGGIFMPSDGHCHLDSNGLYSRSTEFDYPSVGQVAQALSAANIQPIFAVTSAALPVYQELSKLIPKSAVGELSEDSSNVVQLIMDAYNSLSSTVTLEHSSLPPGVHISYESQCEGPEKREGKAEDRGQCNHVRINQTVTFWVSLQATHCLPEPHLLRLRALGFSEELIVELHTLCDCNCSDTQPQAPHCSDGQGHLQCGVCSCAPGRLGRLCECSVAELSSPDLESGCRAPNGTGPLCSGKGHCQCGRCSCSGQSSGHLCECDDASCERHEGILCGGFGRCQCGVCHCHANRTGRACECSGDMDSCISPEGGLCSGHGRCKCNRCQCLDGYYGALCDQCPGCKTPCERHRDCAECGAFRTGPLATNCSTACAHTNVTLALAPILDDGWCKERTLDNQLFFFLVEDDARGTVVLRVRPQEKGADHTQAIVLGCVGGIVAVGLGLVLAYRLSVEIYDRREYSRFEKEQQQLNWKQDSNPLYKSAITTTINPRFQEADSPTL

Row | SMILES | IC50 [1] | IC50 [2]
1 | Cn1c(=O)c(-c2cccc3c(C[C@H](NC(=O)[C@]4(C)CC[C@H](N5CCOC[C@@H]5C(F)(F)F)CC4)C(=O)O)cccc23)c(C(F)(F)F)c2ccccc21 (single isomer, unassigned) [Compound 347] | 10 to 100 nM | > 1000 nM
2 | Cn1c(C(F)(F)F)cc(C(F)(F)F)c(-c2cccc3c(C[C@H](NC(=O)[C@]4(C)CC[C@@H](N5CCC(F)(F)CC5)CC4)C(=O)O)cccc23)c1=O (single isomer, unassigned) [Compound 405] | 10 to 100 nM | > 1000 nM
3 | CN(C)Cc1cc(-c2cccc3c(C[C@H](NC(=O)c4c(F)cc(N5CCOC[C@@H]5C(F)(F)F)cc4CN4CCOCC4)C(=O)O)cccc23)c2cnccc2c1 [Compound 294] | < 10 nM | > 1000 nM
4 | CN(C)Cc1cccc2c(-c3cccc4c(C[C@H](NC(=O)c5c(F)cc(N6CCOC[C@@H]6C(F)(F)F)cc5CN5CCOCC5)C(=O)O)cccc34)nccc12 [Compound 298] | < 10 nM | > 1000 nM
5 | CN(C)c1ccc2c(-c3cccc4c(C[C@H](NC(=O)c5c(F)cc(N6CCOC[C@@H]6C(F)(F)F)cc5CN5CCOCC5)C(=O)O)cccc34)nccc2c1 [Compound 299] | < 10 nM | > 1000 nM
6 | CN(C)C1CCN(Cc2cc(N3CCOC[C@@H]3C(F)(F)F)cc(F)c2C(=O)N[C@@H](Cc2cccc3c(-c4cccc5ccncc45)cccc23)C(=O)O)CC1 [Compound 300] | < 10 nM | > 1000 nM
7 | O=C(N[C@@H](Cc1cccc2c(-c3cccc4ccncc34)cccc12)C(=O)O)c1c(F)cc(N2CCOC[C@@H]2C(F)(F)F)cc1CN1CCC(F)(F)CC1 [Compound 301] | 10 to 100 nM | > 1000 nM
8 | CN(C)c1ccc2c(c1)c(C(F)(F)F)c(-c1cccc3c(C[C@H](NC(=O)c4c(F)cc(N5CCOC[C@@H]5C(F)(F)F)cc4F)C(=O)O)cccc13)c(=O)n2C [Compound 302] | 10 to 100 nM | > 1000 nM
9 | Cn1c(=O)c(-c2cccc3c(C[C@H](NC(=O)c4c(F)cc(N5CCOC[C@@H]5C(F)(F)F)cc4F)C(=O)O)cccc23)c(C(F)(F)F)c2ccccc21 [Compound 317] | 10 to 100 nM | > 1000 nM
10 | Cn1c(=O)c(-c2cccc3c(C[C@H](NC(=O)c4c(F)cc(N5CCCC[C@@H]5C(F)(F)F)cc4F)C(=O)O)cccc23)c(C(F)(F)F)c2ccccc21 [Compound 318] | 100 to 1000 nM | > 1000 nM
11 | CC[C@@H](Nc1cc(F)c(C(=O)N[C@@H](Cc2cccc3c(-c4c(C(F)(F)F)c5ccccc5n(C)c4=O)cccc23)C(=O)O)c(F)c1)C(F)(F)F [Compound 321] | 10 to 100 nM | > 1000 nM
12 | Cn1c(=O)c(-c2cccc3c(C[C@H](NC(=O)c4c(F)cc(N(CC(F)(F)F)CC(F)(F)F)cc4F)C(=O)O)cccc23)c(C(F)(F)F)c2ccccc21 [Compound 324] | 10 to 100 nM | > 1000 nM
13 | Cn1c(=O)c(-c2cccc3c(C[C@H](NC(=O)c4c(F)cc(N5CC(C)(C)OC(C)(C)C5)cc4F)C(=O)O)cccc23)c(C(F)(F)F)c2ccccc21 [Compound 331] | 10 to 100 nM | > 1000 nM
14 | Cn1c(=O)c(-c2cccc3c(C[C@H](NC(=O)[C@]4(C)CC[C@@H](N5CCOC[C@@H]5C(F)(F)F)CC4)C(=O)O)cccc23)c(C(F)(F)F)c2ccccc21 [Compound 346] | 10 to 100 nM | > 1000 nM
15 | CN1CCN(c2cc(F)c(C(=O)N[C@@H](Cc3cccc4c(-c5c(C(F)(F)F)c6ccccc6n(C)c5=O)cccc34)C(=O)O)c(F)c2)CC1 [Compound 350] | 10 to 100 nM | > 1000 nM
16 | Cn1c(=O)c(-c2cccc3c(C[C@H](NC(=O)C45CC(N6CCC(F)(F)CC6)(C4)C5)C(=O)O)cccc23)c(C(F)(F)F)c2ccccc21 [Compound 391] | > 1000 nM | –
17 | Cn1c(=O)c(-c2cccc3c(C[C@H](NC(=O)c4c(F)cc(N(CC5COC5)C5COC5)cc4F)C(=O)O)cccc23)c(C(F)(F)F)c2ccccc21 [Compound 394] | 10 to 100 nM | –
18 | Cn1c(=O)c(-c2cccc3c(C[C@H](NC(=O)c4c(F)cc(N5CCS(=O)(=O)CC5)cc4F)C(=O)O)cccc23)c(C(F)(F)F)c2ccccc21 [Compound 398] | 10 to 100 nM | –
19 | Cn1c(C(F)(F)F)cc(C(F)(F)F)c(-c2cccc3c(C[C@H](NC(=O)[C@]4(C)CC[C@H](N5CCC(F)(F)CC5)CC4)C(=O)O)cccc23)c1=O [Compound 406] | > 1000 nM | –
20 | COc1ccn2nc(C(=O)N[C@@H](Cc3cccc4c(-c5c(C(F)(F)F)c6ccccc6n(C)c5=O)cccc34)C(=O)O)cc2c1 [Compound 427] | > 1000 nM | –
21 | Cn1c(=O)c(-c2cccc3c(C[C@H](NC(=O)c4cc5ccc(N6CC(F)(F)C6)cn5n4)C(=O)O)cccc23)c(C(F)(F)F)c2ccccc21 [Compound 428] | > 1000 nM | –
22 | Cn1c(=O)c(-c2cccc3c(C[C@H](NC(=O)c4cc5ccc(N6CC(F)C6)cn5n4)C(=O)O)cccc23)c(C(F)(F)F)c2ccccc21 [Compound 429] | > 1000 nM | –
23 | Cn1c(=O)c(-c2cccc3c(CC(Nc4nccc5cccc(F)c45)C(=O)O)cccc23)c(C(F)(F)F)c2ccccc21 (stereo not shown) [Compound 437] | > 1000 nM | –
24 | Cn1ccc(C(F)(F)F)c(-c2cccc3c(C[C@H](NC(=O)c4c(F)cc(N5CC(F)(F)OC(F)(F)C5)cc4F)C(=O)O)cccc23)c1=O [Compound 441] | 10 to 100 nM | –
25 | COCC1CCN(c2cc(F)c(C(=O)N[C@@H](Cc3cccc4c(-c5c(C(F)(F)F)c6ccccc6n(C)c5=O)cccc34)C(=O)O)c(F)c2)C1 (stereo partly shown) [Compound 463] | > 1000 nM | –
26 | CO[C@@H]1C[C@@H](c2cc(F)c(C(=O)N[C@@H](Cc3cccc4c(-c5c(C(F)(F)F)c6ccccc6n(C)c5=O)cccc34)C(=O)O)c(F)c2)N(C)C1 [Compound 464] | 100 to 1000 nM | –
27 | CN(C)Cc1ccc2c(-c3cccc4c(C[C@H](NC(=O)[C@]5(C)CC[C@H](N6CCC(F)(F)CC6)CC5)C(=O)O)cccc34)nccc2c1 [Compound 586] | > 1000 nM | –

Second part, the compound after the results:

Row | IC50 [1] | IC50 [2] | SMILES
28 | 10 to 100 nM | > 1000 nM | Cc1n[nH]c(C)c1-c1cc(F)c(C(=O)N[C@@H](Cc2cccc3c(-c4c(C(F)(F)F)c5ccccc5n(C)c4=O)cccc23)C(=O)O)c(F)c1 [Compound 308]
29 | 10 to 100 nM | > 1000 nM | Cc1n[nH]c(C)c1-c1ccc(F)c(C(=O)N[C@@H](Cc2cccc3c(-c4c(C(F)(F)F)c5ccccc5n(C)c4=O)cccc23)C(=O)O)c1F [Compound 309]
30 | 10 to 100 nM | > 1000 nM | Cn1c(=O)c(-c2cccc3c(C[C@H](NC(=O)c4c(F)ccc(-c5cccnc5)c4F)C(=O)O)cccc23)c(C(F)(F)F)c2ccccc21 [Compound 312]
31 | 10 to 100 nM | > 1000 nM | Cn1c(=O)c(-c2cccc3c(C[C@H](NC(=O)c4c(F)ccc(-c5ccccn5)c4F)C(=O)O)cccc23)c(C(F)(F)F)c2ccccc21 [Compound 313]
32 | 10 to 100 nM | > 1000 nM | Cc1cncc(C)c1-c1ccc(F)c(C(=O)N[C@@H](Cc2cccc3c(-c4c(C(F)(F)F)c5ccccc5n(C)c4=O)cccc23)C(=O)O)c1F [Compound 314]
33 | 10 to 100 nM | > 1000 nM | Cc1ccnc(C)c1-c1ccc(F)c(C(=O)N[C@@H](Cc2cccc3c(-c4c(C(F)(F)F)c5ccccc5n(C)c4=O)cccc23)C(=O)O)c1F [Compound 315]
34 | 10 to 100 nM | 100 to 1000 nM | Cn1c(=O)c(-c2cccc3c(C[C@H](NC(=O)c4c(F)cc5cnn(CC(F)(F)F)c5c4F)C(=O)O)cccc23)c(C(F)(F)F)c2ccccc21 [Compound 322]
35 | > 1000 nM | > 1000 nM | Cn1c(=O)c(-c2cccc3c(C[C@H](NC(=O)c4c(F)cc(C(F)(F)F)cc4F)C(=O)O)cccc23)c(C(F)(F)F)c2ccccc21 [Compound 325]
36 | 100 to 1000 nM | > 1000 nM | Cc1[nH]c2ccccc2c1-c1cc(F)c(C(=O)N[C@@H](Cc2cccc3c(-c4c(C(F)(F)F)c5ccccc5n(C)c4=O)cccc23)C(=O)O)c(F)c1 [Compound 327]
37 | 10 to 100 nM | > 1000 nM | Cc1cccc(C)c1-c1nc(C)c(C(=O)N[C@@H](Cc2cccc3c(-c4c(C(F)(F)F)c5ccccc5n(C)c4=O)cccc23)C(=O)O)n1C [Compound 330]
38 | < 10 nM | > 1000 nM | Cn1c(=O)c(-c2cccc3c(C[C@H](NC(=O)c4c(F)cccc4CN4CCCC4)C(=O)O)cccc23)c(C(F)(F)F)c2ccccc21 [Compound 351]
39 | 100 to 1000 nM | – | Cn1c(=O)c(-c2cccc3c(C[C@H](NC(=O)c4c(F)cc(N5CC(F)C5)cc4F)C(=O)O)cccc23)c(C(F)(F)F)c2ccccc21 [Compound 395]
40 | > 1000 nM | – | Cn1c(=O)c(-c2cccc3c(C[C@H](NC(=O)c4c(F)cc([C@H]5C[C@H](N(C)C)C5)cc4F)C(=O)O)cccc23)c(C(F)(F)F)c2ccccc21 [Compound 417]
41 | 100 to 1000 nM | – | CO[C@@H]1C[C@H](c2cc(F)c(C(=O)N[C@@H](Cc3cccc4c(-c5c(C(F)(F)F)c6ccccc6n(C)c5=O)cccc34)C(=O)O)c(F)c2)N(C)C1 [Compound 465]
